Laboratory results as given in patent US5130485A, “N-hydroxy-N-(3-(2-substituted phenyl)prop-2-enyl)ureas and thioureas useful as 5-lipoxygenase inhibiting agents” (Eli Lilly and Company, priority 1991, dated 1992).

test system: 5-LO; experiment: In vitro inhibition of 5-LO: Schultz-Dale reaction (ovalbumin-induced contraction of tracheal strips from actively sensitized guinea pigs); assay type: tissue-based, guinea pig (male Hartley); conditions: Cavia porcellus; sensitized guinea-pig tracheal strips; antigen (OA) 30 ng/ml; 30 min preincubation; indomethacin 5 μM, pyrilamine 10 μM
Protocol: Male, Hartley strain guinea-pigs (200-250 g) were actively sensitized by three injections of ovalbumin (OA, 10 mg/kg). The OA was administered intraperitoneally on Days 1 and 3 and subcutaneously on Day 5. In vitro experiments were performed 21-25 days later.
On the day of the experiment, guinea pigs were killed by asphyxiation with CO2 and the tracheas removed, cleaned of surrounding connective tissue and cut into sprial strips. Each strip was divided in half for paired experiments. Tissues were placed in 10 ml jacketed tissue baths maintained at 37° C. and attached with cotton thread to Grass force-displacement transducers (FT03C). […] Tracheal strips were bathed in modified Krebs' solution of the following composition (millimolar) NaCl, 118.2; KCl, 4.6; CaCl2.2H2 O, 2.5; MgSO4.7H2 O, 1.2; NaHCO3, 24.8; KH2 PO4, 1.0; and dextrose, 10.0. The buffer contained indomethacin (5 μM) which potentiated the contractions of the cysteinyl leukotrienes (LT) by removing the influence of cyclooxygenase products. The tissue baths were aerated with 95% O2 :5% CO2. Tracheal strips were placed under a resting tension of 2 g, and the tissues were allowed a minimal stabilization period of 60 minutes before undergoing experimentation. Bath fluid was changed at 15 minute intervals during the stabilization period.
Concentration-response curves
Cumulative concentration-response curves were obtained from tracheal strips by increasing the agonist concentration in the organ bath by half-log increments while the previous concentration remained in contact with the tissues van Rossum, Arch, Int. Pharmacodymn Ther., 143, 299-330 (1963). Agonist concentration was increased after reaching the plateau of the contraction elicited by the preceeding concentration. One concentration-response curve was obtained from each tissue. To minimize variability between tissues, contractile responses were expressed as a percentage of the maximal response obtained with carbachol (10 μM), added to the bath at the end of the concentration-response curve. Initially, tissues were challenged with carbachol (10 μM) following the 60 minute stabilization period to insure tissue viability. After recording the maximal response to the initial carbachol challenge, the tissues were washed and re-equilibrated for 60 minutes before starting the experimental protocol.
Determination of EC50 and % Inhibition
To evaluate the effects of novel 5-lipoxygenase inhibitors in the Schultz-Dale reaction, each compound was incubated with the tissues 30 minutes before starting the curves. Vehicle (DMSO) was given to the paired control tissue. Pyrilamine (10 μM) was added to all baths at this time to block the actions of released histamine. Responses obtained at the antigen concentration of 30 ng/ml were recorded in the absence and presence of drug and percent inhibition was calculated for each pair of tissues. IC50 values were determined by linear regression.
LT or carbachol concentration-response curves were used to determine specificity of the agent as a 5-lipoxygenase inhibitor. In these experiments the test compound was incubated as described above. EC50 values, which represent the molar concentration of agonist required to induce 50% of maximal response, was determined by linear regression. Differences in EC50 values, in the presence and absence of test compound were analyzed by Student's t-test with P<0.05 regarded as significant.

In order of rising IC50:
1. C=CCCSc1ccccc1C=CCN(O)C(N)=O [Example 4, N-hydroxy-N-[3-[2-(3-butenylthio)phenyl]-prop-2-enyl]urea]  390 nM
2. CC#CCSc1ccccc1C=CCN(O)C(N)=O [Example 3, N-hydroxy-N-[3-[2-(2-butynylthio)phenyl]prop-2-enyl]urea]  600 nM
3. NC(=O)N(O)CC=Cc1ccccc1SCC1CC1 [Example 6, N-hydroxy-N-[3-[2-(cyclopropylmethylthio)phenyl]-prop-2-enyl]urea]  620 nM
4. C#CCSc1c(F)cccc1C=CCN(O)C(N)=O [Example 9, N-hydroxy-N-[3-[3-fluoro-2-(2-propynylthio)phenyl]prop-2-enyl]urea]  1000 nM
5. C#CCCSc1ccccc1C=CCN(O)C(N)=O [Example 2, N-hydroxy-N-[3-[2-(3-butynylthio)phenyl]prop-2-enyl]urea]  1000 nM
6. NC(=O)N(O)CC=Cc1ccccc1SCC1CCCCC1 [Example 5, N-hydroxy-N-[3-[2-(cyclohexylmethylthio)phenyl]-prop-2-enyl]urea]  1200 nM
7. C#CCSc1ccccc1C=C(C)CN(O)C(N)=O [Example 8, N-hydroxy-N-[2-methyl-3-[2-(2-propynylthio)phenyl]prop-2-enyl]urea]  1800 nM
8. C#CCSc1ccccc1C=CCN(O)C(N)=O [Example 1, N-hydroxy-N-[3-[2-(2-propynylthio)phenyl]prop-2-enyl]urea]  2100 nM
9. C#CCOc1ccccc1C=CCN(O)C(N)=O [Example 7, N-hydroxy-N-[3-[2-(2-propynyloxy)phenyl]prop-2-enyl]urea]  2400 nM

test system: 5-LO; experiment: In vivo inhibition of OA-induced increase in tracheal pressure in passively sensitized guinea pigs, oral dosing; parameters: species or system guinea pig (male Hartley); conditions: 10 mg/kg (footnote a), 2 hr, OA challenge
Protocol: Male Hartley guinea pigs (350-500 g) were passively sensitized against ovalbumin by i.p. administration of 0.3 ml of antiserum 2 days preceeding the experiment. Hyperimmune serum was prepared from actively sensitizing male guinea pigs conditioned with 2 mg of ovalbumin in 50% Complete Freund's Adjuvant i.p. on days 1 and 5. On day 21, the animals were bled and the serum collected and stored at -20° C. On the day of the experiment the passively sensitized guinea pigs were anesthetized with 35 to 40 mg/kg of pentobarbital sodium given i.p. The right jugular vein was cannulated with Tygon microbore tubing (o.d.=03) connected to a syringe for administration of selected drugs. Blood pressure was measured with a Statham pressure transducer connected to a Tygon catheter placed in the left carotid artery. The trachea was cannulated and each animal was ventilated with room air by means of a Harvard rodent respirator set to deliver a tidal volume of 1 ml/100 g body weight with a rate of 60 breaths/minute. Succinylcholine (5 mg/kg) was given i.v. to suppress spontaneous respiration. Intratracheal pressure, an index of total pulmonary resistance, was measured with a Statham pressure transducer connected to a T-tube on the tracheal cannula. […] Body temperature was maintained within normal limits by means of a Deltaphase isothermal pad. Prior to surgery, test compound or vehicle (PEG 400) was administered to each guinea pig by oral gavage and OA challenge was at designated times following oral dosing. The animals were pretreated i.v. with pyrilamine (5 mg/kg), propranolol (1 mg/kg) and indomethacin (10 mg/kg) 5 minutes prior to the OA challenge. OA-induced increase in tracheal pressure was expressed as a percentage of the maximal pressure obtained by clamping the trachea with a hemistat. To determine the effect of each drug, a % inhibition value was calculated from the vehicle and drug treated animals at each concentration tested.

In the case of `CC#CCSc1ccccc1C=CCN(O)C(N)=O` [Example 3, N-hydroxy-N-[3-[2-(2-butynylthio)phenyl]prop-2-enyl]urea], the “Inhibition of 5-LO In Vivo Percent Inhibition (dose of 10 mg/kg)” value is reported as 30%.

same assay, conditions: Cavia porcellus, 30 mg/kg, 2 hr, OA challenge, read-out: Inhibition of 5-LO In Vivo Percent Inhibition at 30 mg/kg, po, 2 hr.

In order of falling inhibition in vivo at 30 mg/kg:
1. C#CCSc1c(F)cccc1C=CCN(O)C(N)=O [Example 9, N-hydroxy-N-[3-[3-fluoro-2-(2-propynylthio)phenyl]prop-2-enyl]urea]  93%
2. C#CCOc1ccccc1C=CCN(O)C(N)=O [Example 7, N-hydroxy-N-[3-[2-(2-propynyloxy)phenyl]prop-2-enyl]urea]  93%
3. C=CCCSc1ccccc1C=CCN(O)C(N)=O [Example 4, N-hydroxy-N-[3-[2-(3-butenylthio)phenyl]-prop-2-enyl]urea]  81%
4. C#CCSc1ccccc1C=CCN(O)C(N)=O [Example 1, N-hydroxy-N-[3-[2-(2-propynylthio)phenyl]prop-2-enyl]urea]  78%
5. NC(=O)N(O)CC=Cc1ccccc1SCC1CCCCC1 [Example 5, N-hydroxy-N-[3-[2-(cyclohexylmethylthio)phenyl]-prop-2-enyl]urea]  76%
6. NC(=O)N(O)CC=Cc1ccccc1SCC1CC1 [Example 6, N-hydroxy-N-[3-[2-(cyclopropylmethylthio)phenyl]-prop-2-enyl]urea]  75%
7. C#CCSc1ccccc1C=C(C)CN(O)C(N)=O [Example 8, N-hydroxy-N-[2-methyl-3-[2-(2-propynylthio)phenyl]prop-2-enyl]urea]  51%
8. C#CCCSc1ccccc1C=CCN(O)C(N)=O [Example 2, N-hydroxy-N-[3-[2-(3-butynylthio)phenyl]prop-2-enyl]urea]  50%
